Assay results from US7781464B2, “Heterocyclic diphenyl ethers” (Bexel Pharmaceuticals, Inc., priority 2003, dated 2010).

What was measured:
TNFα = TNFα inhibition in LPS-challenged human PBMC (ELISA); type: cell-based; conditions: 10 μM, LPS 100 ng/mL for 20 hours
Protocol: Referring to FIG. 7, human PBMC cells were cultured and incubated with Compound 1 and 2 at 10 μM concentration. Cells (1×10^6/mL) were challenged with lipopolysaccharides (LPS) at a concentration of (100 ng/mL) for 20 hours. TNF was measured by ELISA.

[1] = system: human liver cells (HepG2); assay: Cytotoxicity in HepG2 cells (MTS viability); conditions: 24 hours, up to 100 μM
Protocol: To find the cytotoxic effect of this class of new thiazolidinedione compounds (TZD), they were incubated in HepG2 cells for 24 hours and then the viability was measured by colorimetric reactions with MTS.

3T3-L1 adipocytes = assay: Basal glucose uptake in 3T3-L1 adipocytes (14C-2-deoxyglucose); type: cell-based; conditions: 1.0 μM, 72 hours treatment, 10 minutes uptake without insulin, vs 0.1% DMSO
Protocol: Referring to FIG. 1, 3T3-L1 fibroblasts were differentiated to adipocytes by a cocktail containing insulin, dexamethasone and IBMX for four days. Fully differentiated adipocytes were treated with the compounds (1.0 μM concentrations) or 0.1% DMSO for 72 hours and then glucose uptake was carried out for 10 minutes without any addition of insulin. Basal uptake was initiated by addition of radioactive ^14C-2-deoxyglucose and after 10 minutes they were washed with cold PBS mixed with cold glucose. At the end, the cells were solubilized with 0.1% SDS and counted in a Beckman scintillation counter.

db/db mice [2] = assay: Serum cholesterol in db/db mice; type: in vivo; conditions: 50 mg/kg once daily for 14 days
Protocol: Referring to FIG. 6, db/db mice (6-8 weeks old) were treated with Compound 2 (50 mg/kg) once daily for 14 days. At the end of the study serum cholesterol was measured by a calorimetric method.

3T3-L1 fibroblasts = assay: Adipogenesis in 3T3-L1 fibroblasts (Oil-red-O staining); type: cell-based; conditions: stained on day 11, rosiglitazone 10 μM positive control
Protocol: All known PPAR-γ agonists (both TZD or non-TZDs) induce differentiation in the fibroblast cells. The adipogenic potential of these compounds are correlated with their affinity to this receptor. Referring to FIG. 3, to check whether the Compounds 1 and 2 have any affinity to these receptors, 3T3-L1 fibroblasts were treated with either DMSO control or rosiglitazone (all at 10 μM concentrations) as positive control or these two compounds for several days at different concentrations. On day 11th, the differentiated adipocytes were stained with Oil-red-O (Sigma) and washed thoroughly to remove the unbound stain. The stained differentiated adipocytes were visualized under high-resolution microscope.

[3] = system: LPS-induced NO production; assay: Inhibition of LPS-induced NO production in RAW 264.7 macrophages (Griess nitrite); type: cell-based, mouse; conditions: RAW 264.7, 30 μM, LPS 200 ng/mL + IFN-γ 10 U/mL, 18 hours
Protocol: Mouse macrophages (RAW 264.7) were plated in 6-well plate (2 million cells/well), and incubated at 37° C. with LPS (200 ng/mL+IFN-γ 10 U/mL) for 18 hours. Nitrite levels were measured by the Griess reagent. All of the compounds were tested at 30 μM concentrations.

db/db mice [4] = assay: Oral glucose tolerance in db/db mice; type: in vivo; conditions: 50 mg/kg once daily for 14 days, oral glucose challenge 2 g/kg BW
Protocol: Referring to FIG. 5, db/db mice (6-8 weeks old) were treated with Compound 2 (50 mg/kg) once daily for 14 days. On day 14 the animals were fasted overnight and gavaged with Compound 2, one hour prior to oral glucose challenge (2 g/kg BW).

[5] = system: db/db (spontaneous model) diabetic mice; assay: Blood glucose lowering in db/db diabetic mice; type: in vivo; conditions: oral, 50 mg/kg body weight, daily
Protocol: Referring to FIG. 4, ten week old male db/db (spontaneous model) diabetic mice were orally treated with compound 1 at a dose of 50 mg/kg body weight and blood glucose was monitored by one touch glucometer every day morning before the next dose.

Compound: O=C(O)Cc1ccc(Oc2ccc(CC3SC(=O)NC3=O)cc2)cc1 (stereo not drawn) [Compound 1, {4-[4-(2,4-Dioxothiazolidin-5-ylmethyl)phenoxy]-phenyl}acetic acid]
- inhibition of pro-inflammatory cytokines (TNF by ELISA) (TNFα): inhibit major pro-inflammatory cytokines
- cytotoxicity (viability by MTS) [1]: did not show any toxicity
- basal glucose uptake (3T3-L1 adipocytes): induced glucose uptake over basal levels
- serum cholesterol (db/db mice [2]): serum cholesterol lowering effect
- adipogenesis (differentiation of fibroblasts, Oil-red-O) (3T3-L1 fibroblasts): non-adipogenic
- inhibition of LPS-induced NO production (nitrite concentration) [3]: inhibition of LPS-induced NO production

Compound: {4-[4-(2,4-Dioxo-thiazolidin-5-ylmethyl)-phenoxy]-phenyl}-acetic acid disodium salt [Compound 2]
- glucose tolerance (db/db mice [4]): improvement in glucose tolerance
- inhibition of pro-inflammatory cytokines (TNF by ELISA) (TNFα): inhibit major pro-inflammatory cytokines
- basal glucose uptake (3T3-L1 adipocytes): induced glucose uptake over basal levels
- adipogenesis (differentiation of fibroblasts, Oil-red-O) (3T3-L1 fibroblasts): non-adipogenic
- inhibition of LPS-induced NO production (nitrite concentration) [3]: inhibition of LPS-induced NO production
- blood glucose [5]: blood glucose lowering effect
